Patent publication US20080221096A1, “Pyrido[3' ,2':4,5]Furo[3,2-d]Pyrimidine Derivatives” (priority 2005, published 2008)

System: PDE4
Assay: PDE4 Assay Procedure ([3H]-cAMP SPA)
Type: biochemical
Conditions: 15 nM [3H]-cAMP, 1 hour at room temperature, SPA beads

Row | Compound | IC50 [nM]
1 | CC1(C)Cc2c(c(N3CCOCC3)nc3oc4c(N(CCN5CCOCC5)Cc5cccnc5)ncnc4c23)CO1 [Example 14, 2,2-Dimethyl-5-morpholin-4-yl-N-(2-morpholin-4-ylethyl)-N-(pyridin-3-ylmethyl)-1,4-dihydro-2H-pyrano[4″,3″:4′,5′]pyrido[3′,2′:4,5]furo[3,2-d]pyrimidin-8-amine] | 10
2 | CCNc1nc2oc3c(NCCCN4CCCC4=O)ncnc3c2c2c1CCC(C)(C)C2 [Example 35, 1-(3-{[5-(Ethylamino)-2,2-dimethyl-1,2,3,4-tetrahydropyrimido[4′,5′:4,5]furo[2,3-c]isoquinolin-8-yl]amino}propyl)pyrrolidin-2-one] | 1.6
3 | CC1(C)CCc2c(NC3CCC3)nc3oc4c(NCCN5CCOCC5)ncnc4c3c2C1 [Example 46, N^5-Cyclobutyl-2,2-dimethyl-N^8-(2-morpholin-4-ylethyl)-1,2,3,4-tetrahydropyrimido [4′,5′:4,5]furo[2,3-c]isoquinoline-5,8-diamine] | 0.7

More lines, now with the values ahead:

Row | IC50 [nM] | Compound
4 | 0.8 | CC1(C)CCc2c(N3CCOCC3)nc3oc4c(N(CCO)CCN5CCOCC5)ncnc4c3c2C1 [Example 20, 2-[(2,2-Dimethyl-5-morpholin-4-yl-1,2,3,4-tetrahydropyrimido[4′,5′:4,5]furo[2,3-c]isoquinolin-8-yl)(2-morpholin-4-ylethyl)amino]ethanol]
5 | 8.9 | CC1(C)CCc2c(N3CCOCC3)nc3oc4c(NCCN5CCOCC5)ncnc4c3c2C1 [Example 23, 2,2-Dimethyl-5-morpholin-4-yl-N-(2-morpholin-4-ylethyl)-1,2,3,4-tetrahydropyrimido[4′,5′:4,5]furo[2,3-c]isoquinolin-8-amine]
6 | 2 | CCNc1nc2oc3c(NCCN4CCOCC4)ncnc3c2c2c1CCC(C)(C)C2 [Example 31, N^5-Ethyl-2,2-dimethyl-N^8-(2-morpholin-4-ylethyl)-1,2,3,4-tetrahydropyrimido[4′,5′:4,5]furo[2,3-c]isoquinoline-5,8-diamine]
